From paper PMC7463537, “Synthesis and Evaluation of Antimicrobial and Cytotoxic Activity of Oxathiine-Fused Quinone-Thioglucoside Conjugates of Substituted 1,4-Naphthoquinones” (Molecules, 2020)
≈ marks a conversion by molar mass, not a printed value.

Key:
S. aureus ATCC 21027 [1] = assay: Agar diffusion method, S. aureus; format: cell-based, Staphylococcus aureus; design: key to Diameter of Zone Inhibition, S. aureus: Zones within 20–40 mm mean strong antibiotic activity; zones up to 20 mm—moderate; ≤10 mm—weak; +—insignificant; conditions: for zone of inhibition at 100 µg/disc / zone of inhibition at 1 µg/disc: Staphylococcus aureus, read-out: Diameter of Zone Inhibition, S. aureus; for zone of inhibition at 100 µg/disc: ATCC21027, 24 h, 100 µg/well, 24 h, incl. 7 mm well; for zone of inhibition at 1 µg/disc: ATCC21027, 1 µg/well
Protocol: (§1) Elyakov Pacific Institute of Bioorganic Chemistry, Far East Branch, Russian Academy of Sciences. Test substances were dissolved in DMSO at concentrations of 1.0, 0.1, and 0.01 mg/mL. All strains were grown on trypticase-soy agar TSA (BBL) at 37 °C. […] After incubation of the dishes at 37 °C for 24 h (for bacteria) and 48 h (for the fungus) at 28 °C, the diameters of the growth inhibition zones of pathogenic microorganisms (mm) were measured, including the diameter of the wells. Commercial antibacterial drugs (vancomicin and gentamicin) and antifungal (clotrimazol) drugs were used as positive controls.

B. cereus ATCC 10702 = assay: Agar diffusion method, B. cereus; format: cell-based, Bacillus cereus; design: key to Diameter of Zone Inhibition, B. cereus: Zones within 20–40 mm mean strong antibiotic activity; zones up to 20 mm—moderate; ≤10 mm—weak; +—insignificant; conditions: for zone of inhibition at 100 µg/disc / zone of inhibition at 1 µg/disc: Bacillus cereus, read-out: Diameter of Zone Inhibition, B. cereus; for zone of inhibition at 100 µg/disc: ATCC10702, 24 h, 100 µg/well, 24 h, incl. 7 mm well; for zone of inhibition at 1 µg/disc: ATCC10702, 1 µg/well; for Diameter of Zone Inhibition, B. cereus: 1 µg/well
Protocol: as §1

P. aeruginosa ATCC 27853 = assay: Agar diffusion method, P. aeruginosa; format: cell-based, Pseudomonas aeruginosa; conditions: Pseudomonas aeruginosa, ATCC27853, 100 µg/well; read-out: Diameter of Zone Inhibition, P. aeruginosa
Protocol: as §1

E. coli K-12 = assay: Agar diffusion method, E. coli; format: cell-based, Escherichia coli; conditions: Escherichia coli, K12; 100 µg/well; read-out: Diameter of Zone Inhibition, E. coli
Protocol: as §1

C. albicans KMM 453 = assay: Agar diffusion method, C. albicans; format: cell-based; conditions: Candida albicans, KMM453, 48 h, 100 µg/well, 48 h at 28 °C; read-out: Diameter of Zone Inhibition, C. albicans
Protocol: as §1

[2] = system: human cervical cancer (HeLa); assay: Cytotoxicity, MTT assay, HeLa cells; conditions: for EC50: Homo sapiens, HeLa, 24 h, read-out: Cytotoxicity (EC50), HeLa; for Selectivity Index (SI), HeLa: SI = EC50 (Jb6 Cl 41-5a normal cells)/EC50 (tumor cells)
[3] = system: mouse neuroblastoma (Neuro 2a); assay: Cytotoxicity, MTT assay, Neuro 2a cells; conditions: for EC50: N2a, 24 h, read-out: Cytotoxicity (EC50), Neuro 2a; for Selectivity Index (SI), Neuro-2a: SI = EC50 (Jb6 Cl 41-5a normal cells)/EC50 (tumor cells)
[4] = Cytotoxicity, MTT assay, Jb6 Cl 41-5a normal epithelial cells; conditions: mouse, Jb6 Cl 41-5a normal epithelial cells
[5] = Cytotoxicity, statements of the text over all tested cell lines; conditions: human, mouse
[6] = system: mouse ascites Ehrlich carcinoma; assay: Cytotoxicity, nonspecific esterase (FDA) assay, ascites Ehrlich carcinoma cells; conditions: for EC50: Mus musculus, Ehrlich, 24 h, read-out: Cytotoxicity (EC50), Ascites Ehrlich Carcinoma; for Selectivity Index (SI), Ascitic Ehrlich Carcinoma: SI = EC50 (Jb6 Cl 41-5a normal cells)/EC50 (tumor cells)
[7] = system: Gram-positive bacteria (S. aureus, B. cereus); assay: Agar diffusion method, Gram-positive strains; format: cell-based, Staphylococcus aureus, Bacillus cereus; conditions: for zone of inhibition at 100 µg/disc: Staphylococcus aureus, 100 µg/well, read-out: Antimicrobial activity / inhibition zone diameter, Gram-positive bacteria; for Antimicrobial activity / inhibition zone diameter, Gram-positive bacteria: 10 µg/well; for Antimicrobial activity, Gram-positive strains: dilution to 1 µg/well
Protocol: as §1

S. aureus ATCC 21027 [8] = assay: Minimum inhibitory concentration, broth microdilution; format: cell-based, Staphylococcus aureus; conditions: for Selectivity index (SI) against S. aureus: SI = EC50 (normal Jb6 Cl 41-5a cells)/MIC; for MIC: Staphylococcus aureus, ATCC21027, broth microdilution, 24 h, read-out: Minimum inhibitory concentration (MIC) against S. aureus
Protocol: Stocks of substances were prepared in DMSO at a concentration of 10 mM. All studied compounds were tested in concentrations from 1.5 μM to 100 μM using twofold dilution. All tested compounds were add to the wells of the plates in a volume of 20 μL diluted in PBS (DMSO concentration < 1%). The bacterial culture of S. aureus ATCC 21027 (Collection of Marine Microorganisms PIBOC FEB RAS) was cultured in a Petri dish at 37 °C for 24 h on solid medium with the following composition; pepton—5.0 g/L, K2HPO4—0.2 g/L, glucose—1.0 g/L, MgSO4—0.05 g/L, yeast extract—1 g/L, agar—16.0 g/L, and distilled water—1.0 L. The pH of the medium was adjusted to 7.2–7.4 with NaOH solution.
The antimicrobial activity of the compounds was determined by the minimum inhibitory concentration (MIC) according to the method adopted by the Clinical and Laboratory Standards Institute (CLSI). Methods for dilution antimicrobial susceptibility tests for bacteria that grow aerobically followed the approved standard—tenth edition. CLSI document M07-A10, PA: Clinical and Laboratory Standards Institute; 2015, with a slight modification of the medium. The assays were performed in 96-well microplates in appropriate broth (pepton—5.0 g/L, K2HPO4—0.2 g/L, glucose—1.0 g/L, MgSO4—0.05 g/L, yeast extract—1 g/L, casein hydrolyzate—2.5 g/L, distilled water—1L). […] The MIC value is defined as the lowest concentration of compounds resulting in the complete inhibition of bacterial growth by measuring the absorbance at 600 nm with a microplate reader (BioTek, Winooski, Vt, USA). All experiments were performed twice in triplicate. Gentamicin was used as a positive control in concentration 1 mg/mL; 1% DMSO solution in PBS as a negative. The selectivity index for S. aureus has been defined as the ratio of EC50 for normal cells and the MIC value for the bacterial culture (SI = EC50/MIC).

Compound | MIC (S. aureus ATCC 21027 [8]) [µM] | melting point [°C] | zone of inhibition at 100 µg/disc (S. aureus ATCC 21027 [1]) [mm] | zone of inhibition at 100 µg/disc (B. cereus ATCC 10702) [mm] | zone of inhibition at 100 µg/disc (P. aeruginosa ATCC 27853) [mm] | zone of inhibition at 100 µg/disc (E. coli K-12) [mm] | zone of inhibition at 100 µg/disc (C. albicans KMM 453) [mm] | EC50 [2] [nM] | Selectivity Index (SI), HeLa [2] | EC50 [3] [nM] | Selectivity Index (SI), Neuro-2a [3] | EC50 at 24 h [4] [nM] | EC50 [6] [nM] | Selectivity Index (SI), Ascitic Ehrlich Carcinoma [6] | Selectivity index (SI) against S. aureus (S. aureus ATCC 21027 [8]) | zone of inhibition at 1 µg/disc (S. aureus ATCC 21027 [1]) [mm] | further results
O=C1C2=C(S[C@@H]3O[C@H](CO)[C@@H](O)[C@H](O)[C@H]3O2)C(=O)c2c(O)cccc21 [Compound 19a, (2R,3S,4S,4aR,12aS)-3,4,10-Trihydroxy-2-hydroxymethyl-3,4,4a,12a-tetrahydro-2H-naphtho[2,3-b]pyrano[2,3-e][2,5]oxathiine-6,11-dione] |  |  | 0 | 0 | 0 | 0 | 0 | 3700 | 1.5 | 4100 | 1.4 | 5600 | 600 | 9.3 |  |  | EC50 at 24 h [5]: 600 to 900 nM
O=C1C2=C(S[C@@H]3O[C@H](CO)[C@H](O)[C@H](O)[C@H]3O2)C(=O)c2c(O)cccc21 [Compound 19b, (2R,3R,4S,4aR,12aS)-3,4,10-Trihydroxy-2-hydroxymethyl-3,4,4a,12a-tetrahydro-2H-naphtho[2,3-b]pyrano-[2,3-e][2,5]oxathiine-6,11-dione] |  |  | 0 | 8 ± 2 | 0 | 0 | 0 | 2700 | 0.3 | 2300 | 0.4 | 900 | 700 | 1.3 |  |  | zone of inhibition at 100 µg/disc [7]: ≤ 10 mm; EC50 at 24 h [5]: 600 to 900 nM
O=C1C2=C(S[C@@H]3OC[C@H](O)[C@H](O)[C@H]3O2)C(=O)c2c(O)cccc21 [Compound 19d, (3S,4S,4aR,12aS)-3,4,10-Trihydroxy-3,4,4a,12a-tetrahydro-2H-naphtho[2,3-b]pyrano[2,3-e][2,5]oxathiine-6,11-dione] | 6.25 (≈ 2.1 µg/mL) | 319 to 321 | 20 ± 3 | 25 ± 2 | 0 | 0 | 0 | 1300 | 1.8 | 2200 | 1 | 2300 | 1100 | 2.1 | 0.4 |  | zone of inhibition at 100 µg/disc [7]: 20 to 40 mm
O=C1C2=C(O[C@@H]3[C@@H](O)[C@H](O)CO[C@H]3S2)C(=O)c2c(O)cccc21 [Compound 20c, (3R,4S,4aR,12aS)-3,4,7-Trihydroxy-3,4,4a,12a-tetrahydro-2H-naphtho[2,3-b]pyrano[2,3-e][2,5]oxathiine-6,11-dione] | 12.5 (≈ 4.2 µg/mL) |  | 30 ± 2 | 25 ± 1 | 0 | 0 | 8 ± 1 | 2300 | 0.1 | 2200 | 0.1 | 300 | 700 | 0.4 | 0.02 |  | Diameter of Zone Inhibition, S. aureus (S. aureus ATCC 21027 [1]; 1 µg/well): +; Diameter of Zone Inhibition, B. cereus (B. cereus ATCC 10702): +; Antimicrobial activity / inhibition zone diameter, Gram-positive bacteria [7]: comparable with antibiotics vancomicin and gentamicin; Antimicrobial activity, Gram-positive strains [7]: residual effect

Further lines, with some results ahead:

MIC (S. aureus ATCC 21027 [8]) [µM] | melting point [°C] | Compound | zone of inhibition at 100 µg/disc (S. aureus ATCC 21027 [1]) [mm] | zone of inhibition at 100 µg/disc (B. cereus ATCC 10702) [mm] | zone of inhibition at 100 µg/disc (P. aeruginosa ATCC 27853) [mm] | zone of inhibition at 100 µg/disc (E. coli K-12) [mm] | zone of inhibition at 100 µg/disc (C. albicans KMM 453) [mm] | EC50 [2] [nM] | Selectivity Index (SI), HeLa [2] | EC50 [3] [nM] | Selectivity Index (SI), Neuro-2a [3] | EC50 at 24 h [4] [nM] | EC50 [6] [nM] | Selectivity Index (SI), Ascitic Ehrlich Carcinoma [6] | Selectivity index (SI) against S. aureus (S. aureus ATCC 21027 [8]) | zone of inhibition at 1 µg/disc (S. aureus ATCC 21027 [1]) [mm] | further results
25 (≈ 9.16 µg/mL) | 274 to 276 | O=C1C2=C(O[C@@H]3[C@@H](O)[C@H](O)[C@@H](CO)O[C@H]3S2)C(=O)c2c(O)cccc21 [Compound 20a, (2R,3S,4S,4aR,12aS)-3,4,7-Trihydroxy-2-(hydroxymethyl)-3,4,4a,12a-tetrahydro-2H-naphtho[2,3-b]pyrano-[2,3-e][2,5]oxathiine-6,11-dione] | 30 ± 2 | 22 ± 1 | 0 | 0 | 0 | 6300 | 0.1 | 700 | 1 | 700 | 2700 | 0.3 |  | 0 | zone of inhibition at 1 µg/disc (B. cereus ATCC 10702): 0 mm
25 (≈ 9.16 µg/mL) | 293 to 295 | O=C1C2=C(O[C@@H]3[C@@H](O)[C@@H](O)[C@@H](CO)O[C@H]3S2)C(=O)c2c(O)cccc21 [Compound 20b, (2R,3R,4S,4aR,12aS)-3,4,7-Trihydroxy-2-hydroxymethyl-3,4,4a,12a-tetrahydro-2H-naphtho[2,3-b]pyrano[2,3-e][2,5]oxathiine-6,11-dione] | 30 ± 2 | 20 ± 1 | 0 | 0 | 0 | 4700 | 0.1 | 1200 | 0.4 | 500 | 1100 | 0.5 |  | 0 | zone of inhibition at 1 µg/disc (B. cereus ATCC 10702): 0 mm
6.25 (≈ 2.1 µg/mL) |  | O=C1C2=C(O[C@@H]3[C@@H](O)[C@@H](O)CO[C@H]3S2)C(=O)c2c(O)cccc21 [Compound 20d, (3S,4S,4aR,12aS)-3,4,7-Trihydroxy-3,4,4a,12a-tetrahydro-2H-naphtho[2,3-b]pyrano[2,3-e][2,5]oxathiine-6,11-dione] | 40 ± 2 | 30 ± 3 | 0 | 0 | 0 | 400 | 1.75 | 1400 | 0.5 | 700 | 1200 | 0.6 | 0.1 | 0 | Diameter of Zone Inhibition, B. cereus (B. cereus ATCC 10702): +; Antimicrobial activity / inhibition zone diameter, Gram-positive bacteria [7]: comparable with antibiotics vancomicin and gentamicin; Antimicrobial activity, Gram-positive strains [7]: residual effect
